Experimental findings from ChEMBL document CHEMBL3867482, “Design and synthesis of water soluble β-aminosulfone analogues of SCH 900229 as γ-secretase inhibitors” (Bioorg Med Chem Lett, 2016) are described below.

Values after ≈ are worked out from the molar mass of the structure shown. Some results are limits rather than exact numbers.

Series [1] is described as follows: Inhibition of gamma-secretase in HEK293 cell membranes expressing human APP Swedish/London double mutant assessed as reduction in amyloid beta 40 formation after 1 hr by electrochemiluminescence based immunoassay.
Series [2] is described as follows: Selectivity ratio of IC50 for human gamma secretase PS2 (1 to 467 residues) expressed in baculovirus infected sf9 cells co-expressing aph-1a to IC50 for gamma secretase PS1 (1 to 448 residues) expressed in baculovirus infected sf9 cells co-expressing aph-1a.
A short description of series [3]: Kinetic solubility of compound. The series is classed as physicochemical. The settings on record: read-out: Kinetic_solubility.
Series [4] is described as follows: Clearance in dog hepatocytes assessed per million cells by HPLC/atmospheric pressure chemical ionization/MS analysis. The series is classed as ADME, cell-based, Canis lupus familiaris, Hepatocyte. Conditions: read-out: CLH.
The target in a further series is Cytochrome P450 2D6 (Homo sapiens, UniProt P10635). Briefly: Inhibition of CYP2D6 in human liver microsomes after 30 secs by LC/MS/MS analysis. The series is classed as ADME. In general terms: Liver microsomes are a subcellular fraction often used to study metabolism.
Chain of Cytochrome P450 2D6 (P10635 whole entry): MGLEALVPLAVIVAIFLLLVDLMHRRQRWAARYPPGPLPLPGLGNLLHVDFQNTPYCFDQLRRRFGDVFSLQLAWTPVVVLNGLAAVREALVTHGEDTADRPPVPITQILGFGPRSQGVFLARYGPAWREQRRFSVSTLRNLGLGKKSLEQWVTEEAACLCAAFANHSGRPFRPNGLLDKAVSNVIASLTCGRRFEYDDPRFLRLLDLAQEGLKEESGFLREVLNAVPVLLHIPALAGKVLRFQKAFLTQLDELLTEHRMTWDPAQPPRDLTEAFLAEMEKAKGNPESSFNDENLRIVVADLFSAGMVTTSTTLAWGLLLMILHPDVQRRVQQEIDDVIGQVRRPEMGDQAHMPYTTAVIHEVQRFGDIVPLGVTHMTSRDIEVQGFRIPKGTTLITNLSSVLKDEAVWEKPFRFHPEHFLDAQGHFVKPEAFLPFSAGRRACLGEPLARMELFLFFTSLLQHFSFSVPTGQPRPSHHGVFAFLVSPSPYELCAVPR
A short description of series [5]: Clearance in human hepatocytes assessed per million cells by HPLC/atmospheric pressure chemical ionization/MS analysis. The series is classed as ADME, cell-based, Hepatocyte. Conditions: read-out: CLH.
The subject of series [6] is Mus musculus. Briefly: Antialzheimer activity in B6C3F1 mouse assessed as amyloid beta 40 level in plasma at 10 mg/kg, po administered as single dose after 3 hrs relative to control. The series is classed as functional.
Series [7] can be described thus: Clearance in rat hepatocytes assessed per million cells by HPLC/atmospheric pressure chemical ionization/MS analysis. The series is classed as ADME, cell-based, Hepatocyte. The settings on record: read-out: CLH.
The target of a further series is Cytochrome P450 2C9 (Homo sapiens, UniProt P11712). Briefly: Inhibition of CYP2C9 in human liver microsomes after 30 secs by LC/MS/MS analysis. The series is classed as ADME.
Chain of Cytochrome P450 2C9 (P11712 whole entry): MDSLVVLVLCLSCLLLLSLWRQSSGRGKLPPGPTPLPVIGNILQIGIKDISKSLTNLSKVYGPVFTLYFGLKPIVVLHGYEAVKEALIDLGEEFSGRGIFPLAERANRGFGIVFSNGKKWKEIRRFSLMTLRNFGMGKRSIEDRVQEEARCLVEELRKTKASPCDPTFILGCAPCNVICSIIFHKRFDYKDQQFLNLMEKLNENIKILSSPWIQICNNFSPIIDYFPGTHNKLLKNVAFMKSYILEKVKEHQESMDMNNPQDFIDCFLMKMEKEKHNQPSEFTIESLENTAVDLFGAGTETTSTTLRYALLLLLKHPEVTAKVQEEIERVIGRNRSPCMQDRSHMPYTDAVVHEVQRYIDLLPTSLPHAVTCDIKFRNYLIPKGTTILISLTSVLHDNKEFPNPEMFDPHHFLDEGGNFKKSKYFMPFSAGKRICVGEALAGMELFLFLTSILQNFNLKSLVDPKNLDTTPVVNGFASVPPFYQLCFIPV
Series [8] is described as follows: Clearance in monkey hepatocytes assessed per million cells by HPLC/atmospheric pressure chemical ionization/MS analysis. Conditions: rhesus monkey, read-out: CLH. The series is classed as ADME, cell-based, Macaca mulatta, Hepatocyte.
A short description of series [9]: AUC (0 to 6 hrs) in mouse at 10 mg/kg, po by LC/MS/MS analysis. The series is classed as ADME, organism-based. On the set-up: time < 6 hr, dose 10 mg/kg, route oral. Conditions: in vivo; for AUC: 6 h, BLD = below limit of detection.
Series [10] has as its target T1, Cytochrome P450 3A4 (Homo sapiens, UniProt P08684). Briefly: Inhibition of CYP3A4 in human liver microsomes after 30 secs by LC/MS/MS analysis. The series is classed as ADME.
The target of series [11] is T1, Cytochrome P450 3A4. The experiment in a line: Inhibition of CYP3A4 in human liver microsomes preincubated for 30 mins after 30 secs by LC/MS/MS analysis. The series is classed as ADME.
Series [12] has as its system Mus musculus. Briefly: Antialzheimer activity in B6C3F1 mouse assessed as amyloid beta 40 level in cortex at 10 mg/kg, po administered as single dose after 3 hrs relative to control. The series is classed as functional.

T1 sequence (P08684 whole entry): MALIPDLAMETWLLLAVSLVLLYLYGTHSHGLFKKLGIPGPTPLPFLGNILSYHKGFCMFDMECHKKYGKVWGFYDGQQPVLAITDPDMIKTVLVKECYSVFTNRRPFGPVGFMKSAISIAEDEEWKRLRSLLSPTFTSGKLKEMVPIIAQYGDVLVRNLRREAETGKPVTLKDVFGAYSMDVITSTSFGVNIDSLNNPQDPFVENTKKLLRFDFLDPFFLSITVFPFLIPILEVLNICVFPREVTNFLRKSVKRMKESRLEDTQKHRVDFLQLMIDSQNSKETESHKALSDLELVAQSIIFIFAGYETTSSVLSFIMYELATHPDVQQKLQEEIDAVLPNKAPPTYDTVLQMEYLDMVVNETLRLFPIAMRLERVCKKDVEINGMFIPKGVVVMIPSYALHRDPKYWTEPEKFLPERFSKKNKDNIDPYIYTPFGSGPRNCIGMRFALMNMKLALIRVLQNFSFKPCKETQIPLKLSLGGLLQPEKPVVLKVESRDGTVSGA

Broadly, the IC50 is the concentration at which inhibition is half-maximal. For `O=S(=O)(CCNC1CCC1)CC[C@@H]1OCC[C@@]2(S(=O)(=O)c3ccc(Cl)cc3)c3c(F)ccc(F)c3OC[C@@H]12`, in series [1], the IC50 worked out at 2 nM.
For the molecule `O=S(=O)(CC[C@@H]1OCC[C@@]2(S(=O)(=O)c3ccc(Cl)cc3)c3c(F)ccc(F)c3OC[C@@H]12)CCN1CC[C@H](O)C1`, in series [2], the Ratio IC50 is 12. Moreover, the IC50 in series [1] is 0.8 nM.
Regarding `O=S(=O)(CC[C@@H]1OCC[C@@]2(S(=O)(=O)c3ccc(Cl)cc3)c3c(F)ccc(F)c3OC[C@@H]12)CCN1CCC1`, in [2], the Ratio IC50 worked out at 17. Also, the IC50 in [1] stood at 1.6 nM.
Regarding `Cl.O=S(=O)(CC[C@@H]1OCC[C@@]2(S(=O)(=O)c3ccc(Cl)cc3)c3c(F)ccc(F)c3OC[C@@H]12)C[C@@H]1CCCN1`, the solubility kinetic in [3] is no less than 200 µM.
As to `CNCCS(=O)(=O)CC[C@@H]1OCC[C@@]2(S(=O)(=O)c3ccc(Cl)cc3)c3c(F)ccc(F)c3OC[C@@H]12`, the Ratio IC50 in series [2] was 25.
The same measure, in the same setting: next, `O=S(=O)(CC[C@@H]1OCC[C@@]2(S(=O)(=O)c3ccc(Cl)cc3)c3c(F)ccc(F)c3OC[C@@H]12)C[C@H]1CCCN1`: 23.
For the molecule `O=S(=O)(CC[C@@H]1OCC[C@@]2(S(=O)(=O)c3ccc(Cl)cc3)c3c(F)ccc(F)c3OC[C@@H]12)CCN1CCNCC1`, the hepatocyte CLint in series [4] stood at 7.7 µL/min/1e6 cells; in series [5], 5.3 µL/min/1e6 cells; in series [7], 6.1 µL/min/1e6 cells; in series [8], 12.7 µL/min/1e6 cells. Also, the 50% inhibitory concentration (IC50) was greater than 20 µM against Cytochrome P450 2D6; greater than 20 µM on Cytochrome P450 2C9; 0.8 nM in [1]; greater than 20 µM on Cytochrome P450 3A4 [10]; greater than 20 µM against Cytochrome P450 3A4 [11]. For the same molecule, the Activity in the series with Mus musculus [6] is -95%. Besides, the Ratio IC50 in [2] was 10. Also, the AUC entry in series [9] is reported as “Bld”. For the same molecule, the solubility kinetic in series [3] is 200 µM (≈ 121 µg/mL).
`Cl.O=S(=O)(CC[C@@H]1OCC[C@@]2(S(=O)(=O)c3ccc(Cl)cc3)c3c(F)ccc(F)c3OC[C@@H]12)C1CNC1`: in series [3], the solubility kinetic was greater than 200 µM.
For orientation: AUC(0-t) means the area under the concentration-time curve up to a stated or last time point. Take `NCCS(=O)(=O)CC[C@@H]1OCC[C@@]2(S(=O)(=O)c3ccc(Cl)cc3)c3c(F)ccc(F)c3OC[C@@H]12`: the hepatocyte CLint in series [4] amounted to 6.4 µL/min/1e6 cells; in series [5], 8.5 µL/min/1e6 cells; in [7], 12.1 µL/min/1e6 cells; in series [8] it was 20.3 µL/min/1e6 cells. Further, the 50% inhibitory concentration (IC50) is greater than 20 µM against Cytochrome P450 2D6; greater than 20 µM against Cytochrome P450 2C9; 0.8 nM in [1]; 15.1 µM against Cytochrome P450 3A4 [10]; 2.8 µM at Cytochrome P450 3A4 [11]. Besides, the Activity with Mus musculus [6] is given as -54%; in the series on Mus musculus [12] it was -52%. In series [9], this molecule came in with an AUC(0-t) at 6 h of 0.582 µM·h.
As to `O=S(=O)(CC[C@@H]1OCC[C@@]2(S(=O)(=O)c3ccc(Cl)cc3)c3c(F)ccc(F)c3OC[C@@H]12)C1CNC1`, in the series with Mus musculus [6], the Activity was -15%. Moreover, in series [1], the IC50 amounted to 1.3 nM.
With `O=S(=O)(CC[C@@H]1OCC[C@@]2(S(=O)(=O)c3ccc(Cl)cc3)c3c(F)ccc(F)c3OC[C@@H]12)CCN1CC[C@@H](O)C1`, the Ratio IC50 in series [2] is 12. Further, in series [1], the IC50 was found to be 0.6 nM.
Take `CNCCS(=O)(=O)CC[C@@H]1OCC[C@@]2(S(=O)(=O)c3ccc(Cl)cc3)c3c(F)ccc(F)c3OC[C@@H]12.Cl`: the solubility kinetic in [3] was no less than 200 µM.
Consider `O=S(=O)(CC[C@@H]1OCC[C@@]2(S(=O)(=O)c3ccc(Cl)cc3)c3c(F)ccc(F)c3OC[C@@H]12)[C@@H]1CCNC1`, for which the Ratio IC50 in series [2] was determined as 21.
As to `Cl.O=S(=O)(CC[C@@H]1OCC[C@@]2(S(=O)(=O)c3ccc(Cl)cc3)c3c(F)ccc(F)c3OC[C@@H]12)[C@H]1CCNC1`, the solubility kinetic in series [3] was no less than 200 µM.
In the case of `O=S(=O)(CC[C@@H]1OCC[C@@]2(S(=O)(=O)c3ccc(Cl)cc3)c3c(F)ccc(F)c3OC[C@@H]12)CCN1CCOCC1`, the Ratio IC50 in series [2] amounted to 10. Also, the IC50 in series [1] was 3.7 nM.
In the case of `CN(C)CCS(=O)(=O)CC[C@@H]1OCC[C@@]2(S(=O)(=O)c3ccc(Cl)cc3)c3c(F)ccc(F)c3OC[C@@H]12`, the hepatocyte CLint was found to be 56.5 µL/min/1e6 cells in [4], 57.2 µL/min/1e6 cells in series [5], 66.7 µL/min/1e6 cells in series [7] and 65 µL/min/1e6 cells in series [8]. Besides, the IC50 at Cytochrome P450 2D6 was greater than 20 µM; on Cytochrome P450 2C9, greater than 20 µM; in series [1] it was 1.7 nM; against Cytochrome P450 3A4 [10], greater than 20 µM; at Cytochrome P450 3A4 [11], 9 µM. In addition, the Activity in the series on Mus musculus [6] is on record as -21%; with Mus musculus [12] it was -45%. Moreover, the Ratio IC50 in series [2] is 20. In series [9], the AUC entry was “Bld”. Besides, the solubility kinetic in [3] was determined as 50 µM (≈ 28.2 µg/mL).
